Experimental data as given in PMC5678585, “Screening a protein kinase inhibitor library against Plasmodium falciparum” (Malaria Journal, 2017).
Where a name gives a salt, the structure may show the parent alone. Read-outs that look alike come from different tables or passages of the source.

Experiments:
[1] = system: Plasmodium falciparum 3D7; test: microbe, parasite or virus in culture; conditions: for EC50: read-out: P. fal. EC50; for Percentage inhibition of the growth of Plasmodium falciparum: Prestwick Library pilot screen, duplicate; for inhibition at 5 µM: 3D7, read-out: Percentage inhibition of the growth of Plasmodium falciparum, Prestwick Library pilot screen, screening conc. 0.005 mM, duplicate; for inhibition at 8 µM: 3D7, read-out: Percentage inhibition of the growth of Plasmodium falciparum, Prestwick Library pilot screen, screening conc. 0.008 mM, duplicate; for inhibition at 6 µM: 3D7, read-out: Percentage inhibition of the growth of Plasmodium falciparum, Prestwick Library pilot screen, screening conc. 0.006 mM, duplicate
Method: Growth inhibition was quantified using a fluorescence assay utilizing the binding of SYBR Green I to double stranded DNA, which emits a fluorescent signal at 528 nm after excitation at 485 nm. The SYBR Green assay system was adapted to maximize robustness and to align with available automation systems. The Prestwick Library then used as a pilot screen to validate the performance of the optimized assay. […] Single point screens were carried out, and the potency of compounds of interest was determined in duplicate on two independent occasions. A 96-well [^3H]-Hypoxanthine incorporation assay was also developed as a secondary assay in order to validate key compounds from each hit series in an orthogonal platform.
(§1) All data were processed using IDBS ActivityBase. […] The formula used to calculate Z’ is 1-3×(StDev_high+StDev_low)/ABS(Mean_high-Mean_low) .
Two independent assays were run.

[2] = system: normal diploid human fibroblasts (MRC-5 pd30); test: in vitro; format: cell-based
Method: Cells were plated and incubated overnight to allow them to adhere as monolayers. A working stock of each test compound was transferred to an intermediate 384-well plate and pre-diluted with minimum essential media (MEM). The pre-diluted stocks were then transferred onto the cell monolayers, and the plates were incubated for 68 h. Resazurin, to a final concentration of 50 μM was added to each well, after which plates were incubated for a further 3 h and measured for fluorescence (λ ex = 528 nm, λ em = 590 nm).
as §1
All EC50 Curve fitting was undertaken using XLFit version 4.2 using Model 205 with the following 4 parametric equation: y=A+B-A/1+[…], where A = % inhibition at bottom, B = % inhibition at top, C = EC50, D = slope, x = inhibitor concentration and y = % inhibition.

[3] = Plasmodium falciparum, 3D7, read-out: Percentage inhibition of the growth of Plasmodium falciparum, Prestwick Library pilot screen, screening conc. 0.004 mM, duplicate
[4] = Plasmodium falciparum, 3D7, read-out: Percentage inhibition of the growth of Plasmodium falciparum, Prestwick Library pilot screen, screening conc. 0.003 mM, duplicate
[5] = Plasmodium falciparum, 3D7, read-out: Percentage inhibition of the growth of Plasmodium falciparum, Prestwick Library pilot screen, screening conc. 0.007 mM, duplicate
[6] = Plasmodium falciparum, read-out: Percentage inhibition of the growth of Plasmodium falciparum

**Q.** How did the inhibition at 4 µM [1, 3] turn out when `[H]/N=C(\N/C(=N/[H])NCCCCCCNC(=N)NC(=N)Nc1ccc(Cl)cc1)Nc1ccc(Cl)cc1` [Chlorhexidine, reference compound] was run?
**A.** 98 ± 1%

**Q.** For `COc1cc(NC(C)CCCN)c2ncccc2c1` (centres unmarked) [Primaquine diphosphate, reference compound], which inhibition at 4 µM [1, 3] is on record?
**A.** 100 ± 4%

**Q.** `O=C(Nc1nc2ccccc2[nH]1)c1cn(-c2ccccc2)nc1-c1cccnc1` [Compound A0032] was tested. Which “LLE (ligand-lipophilicity efficiency)” value ([1]; Table 8, MMV03 SAR) did it give?
**A.** 2.9

**Q.** What about the EC50 ([1]; Table 8, MMV03 SAR) of the same molecule?
**A.** 0.5 µM

**Q.** And the EC50 ([2]; Table 8, MMV03 SAR, read-out: MRC5 EC50)?
**A.** 21 µM

**Q.** With `COc1ccc(CCN2CCC(Nc3nc4ccccc4n3Cc3ccc(F)cc3)CC2)cc1` [Astemizole, reference compound] as the molecule, how does the inhibition at 4 µM [1, 3] read?
**A.** 97.3 ± 0.8%

**Q.** With Verteporfin [reference compound] as the molecule, how does the “Percentage inhibition of the growth of Plasmodium falciparum” value (“Percentage inhibition” below) ([1]; screening conc. 0.003 mM) read?
**A.** 95 ± 2%

**Q.** For `C[N+](C)(C)CCCCCCCCCC[N+](C)(C)C` [Decamethonium bromide, reference compound], which inhibition at 5 µM ([1]; Plasmodium falciparum) is on record?
**A.** 64 ± 3%

**Q.** What does the source list for `COc1cc(NC(=O)c2cc(-c3cccnc3)nc3ccc(Br)cc23)cc(OC)c1` [Compound A0410]?
**A.** EC50 ([1]; Table 7, MMV04 SAR): 0.74 µM; EC50 ([2]; Table 7, MMV04 SAR, read-out: MRC5 EC50): > 50 µM

**Q.** `Nc1nc(N)c2nc(-c3ccccc3)c(N)nc2n1` [Triamterene, reference compound] was tested. Which inhibition at 8 µM ([1]; Plasmodium falciparum) did it give?
**A.** 69 ± 1%

**Q.** How did the inhibition at 3 µM [1, 4] turn out when `COc1cccc2c1C(=O)c1c(O)c3c(c(O)c1C2=O)C[C@@](O)(C(=O)CO)C[C@@H]3O[C@H]1C[C@H](N)[C@H](O)[C@H](C)O1` [Doxorubicin hydrochloride, reference compound] was run?
**A.** 137 ± 2%

**Q.** Which EC50 ([2]; Homo sapiens, MRC5, MRC-5 counter-screen plates, read-out: potency range (standard reference compound)) does the source give for `COc1cccc2c1C(=O)c1c(O)c3c(c(O)c1C2=O)C[C@@](O)(C(=O)CO)C[C@@H]3O[C@H]1C[C@H](N)[C@H](O)[C@H](C)O1` [doxorubicin, reference compound] here?
**A.** 0.2 to 0.4 µM

**Q.** With `[H]/N=C(\N/C(=N/[H])Nc1ccc(Cl)cc1)NC(C)C` [Proguanil hydrochloride, reference compound] as the molecule, how does the inhibition at 7 µM [1, 5] read?
**A.** 49 ± 4%

**Q.** With `CCCCCCCCNC(C)C(O)c1ccc(SC(C)C)cc1` (centres unmarked) [Suloctidil, reference compound] as the molecule, how does the inhibition at 6 µM ([1]; Plasmodium falciparum) read?
**A.** 101 ± 1%

**Q.** Which “Percentage inhibition” value ([1]; screening conc. 0.005 mM) does the source give for `C=C[C@H]1CN2CC[C@H]1C[C@@H]2[C@@H](O)c1ccnc2ccc(OC)cc12.Cl.O` [Quinidine hydrochloride monohydrate, reference compound] here?
**A.** 100 ± 2%

**Q.** How did the “Percentage inhibition” value ([1]; screening conc. 0.005 mM) turn out when `Br.CC[C@H]1CN2CCC1C[C@H]2[C@H](O)c1ccnc2ccc(OC)cc12.O` (some centres unmarked) [Hydroquinine hydrobromide hydrate, reference compound] was run?
**A.** 99 ± 2%

**Q.** With `CN(Cc1cnc2nc(N)nc(N)c2n1)c1ccc(C(=O)N[C@@H](CCC(=O)O)C(=O)O)cc1` [Methotrexate, reference compound] as the molecule, how does the inhibition at 4 µM [1, 3] read?
**A.** 100.9 ± 0.7%

**Q.** How did the inhibition at 3 µM [1, 4] turn out when `N=C(N)c1ccc(OCCCCCOc2ccc(C(=N)N)cc2)cc1` [Pentamidine isethionate, reference compound] was run?
**A.** 100 ± 4%

**Q.** How did the inhibition at 5 µM ([1]; Plasmodium falciparum) turn out when `CN1C[C@H](CNC(=O)OCc2ccccc2)C[C@@H]2c3cccc4c3c(cn4C)C[C@H]21` [Metergoline, reference compound] was run?
**A.** 56 ± 2%

**Q.** How did the inhibition at 4 µM [1, 3] turn out when `CC[C@H]1CN2CCc3cc(OC)c(OC)cc3[C@@H]2C[C@@H]1C[C@H]1NCCc2cc(OC)c(OC)cc21` [Emetine dihydrochloride, reference compound] was run?
**A.** 103 ± 2%

**Q.** For `C[C@@H]1C[C@@H]([C@H](O)CC2CC(=O)NC(=O)C2)C(=O)[C@@H](C)C1` [Cycloheximide, reference compound], which inhibition at 7 µM [1, 6] is on record?
**A.** 103.1 ± 0.1%

**Q.** How did the inhibition at 5 µM ([1]; Plasmodium falciparum) turn out when `CCCNCC(O)COc1ccccc1C(=O)CCc1ccccc1` (centres unmarked) [Propafenone hydrochloride, reference compound] was run?
**A.** 99 ± 1%

**Q.** With `C=C[C@H]1C[N@@]2CC[C@H]1C[C@@H]2[C@@H](O)c1ccnc2ccccc12` [Cinchonine, reference compound] as the molecule, how does the inhibition at 7 µM [1, 5] read?
**A.** 101 ± 5%

**Q.** Which inhibition at 4 µM [1, 6] does the source give for `CCN(CC)CCCC(C)Nc1ccnc2cc(Cl)ccc12` (centres unmarked) [Chloroquine diphosphate, reference compound] here?
**A.** 104 ± 1%

**Q.** How did the “Percentage inhibition” value ([1]; screening conc. 0.005 mM) turn out when `C[N+](C)(CCOc1ccccc1)Cc1ccccc1.O=C([O-])c1cc2ccccc2cc1O` [Bephenium hydroxynaphthoate, reference compound] was run?
**A.** 55.1 ± 0.5%

**Q.** With `OC(c1cc(C(F)(F)F)nc2c(C(F)(F)F)cccc12)C1CCCCN1` (centres unmarked) [Mefloquine hydrochloride, reference compound] as the molecule, how does the inhibition at 5 µM ([1]; Plasmodium falciparum) read?
**A.** 97.4 ± 0.4%

**Q.** How did the “Percentage inhibition” value ([1]; screening conc. 0.003 mM) turn out when `CC[C@H]1CN2CCc3cc(OC)c(OC)cc3[C@@H]2C[C@@H]1C[C@H]1NCCc2cc(O)c(OC)cc21.Cl.Cl.O.O.O.O.O.O.O` [Cephaeline dihydrochloride heptahydrate, reference compound] was run?
**A.** 101 ± 3%

**Q.** For `COc1ccc2cc3[n+](cc2c1OC)CCc1cc2c(cc1-3)OCO2` [Berberine chloride, reference compound], which inhibition at 5 µM ([1]; Plasmodium falciparum) is on record?
**A.** 99 ± 2%

**Q.** Which inhibition at 4 µM [1, 3] does the source give for `CCN(CC)CCCC(C)Nc1c2ccc(Cl)cc2nc2ccc(OC)cc12` (centres unmarked) [Quinacrine dihydrochloride dihydrate, reference compound] here?
**A.** 100 ± 2%

**Q.** Which inhibition at 4 µM [1, 3] does the source give for `COc1cc2nc(N3CCN(C(=O)C4COc5ccccc5O4)CC3)nc(N)c2cc1OC` (centres unmarked) [Doxazosin mesylate, reference compound] here?
**A.** 84 ± 0.6%

**Q.** Which inhibition at 6 µM ([1]; Plasmodium falciparum) does the source give for `COc1c(C)c2c(c(O)c1C/C=C(\C)CCC(=O)O)C(=O)OC2` [Mycophenolic acid, reference compound] here?
**A.** 63 ± 3%

**Q.** `CCCCCCCCCCCCCCCC[N+](C)(C)CCN(Cc1ccc(OC)cc1)c1ncccn1` [Thonzonium bromide, reference compound] was tested. Which inhibition at 3 µM [1, 4] did it give?
**A.** 70 ± 1%

**Q.** With `CN(CCCCCCCCCCN(C)C(=O)Oc1cccc([N+](C)(C)C)c1)C(=O)Oc1cccc([N+](C)(C)C)c1` [Demecarium bromide, reference compound] as the molecule, how does the inhibition at 3 µM [1, 6] read?
**A.** 104 ± 2%

**Q.** How did the inhibition at 4 µM [1, 3] turn out when `O=C1c2c(O)ccc(O)c2C(=O)c2c(NCCNCCO)ccc(NCCNCCO)c21` [Mitoxantrone dihydrochloride, reference compound] was run?
**A.** 140 ± 2%

**Q.** With `CC(=O)O[C@H]1C(=O)[C@@]2(C)[C@H]([C@H](OC(=O)c3ccccc3)[C@]3(O)C[C@H](OC(=O)[C@H](O)[C@@H](NC(=O)c4ccccc4)c4ccccc4)C(C)=C1C3(C)C)[C@]1(OC(C)=O)CO[C@@H]1C[C@@H]2O` [Paclitaxel, reference compound] as the molecule, how does the inhibition at 2 µM ([1]; Plasmodium falciparum, 3D7, read-out: Percentage inhibition of the growth of Plasmodium falciparum, Prestwick Library pilot screen, screening conc. 0.002 mM, duplicate) read?
**A.** 65 ± 2%

**Q.** Which inhibition at 7 µM [1, 5] does the source give for `C[C@@H]1CC[C@H]2[C@@H](C)C(=O)O[C@@H]3O[C@@]4(C)CC[C@@H]1[C@]32OO4` [Artemisinin, reference compound] here?
**A.** 99.5 ± 0.1%

**Q.** And the “Percentage inhibition” value ([1]; screening conc. 0.007 mM)?
**A.** 100%

**Q.** With `COc1ccc(C[C@H](N)C(=O)N[C@H]2[C@@H](O)[C@H](n3cnc4c(N(C)C)ncnc43)O[C@@H]2CO)cc1` [Puromycin dihydrochloride, reference compound] as the molecule, how does the inhibition at 4 µM [1, 3] read?
**A.** 96 ± 5%

**Q.** Which inhibition at 5 µM ([1]; Plasmodium falciparum) does the source give for `O=C1C(O)=C([C@H]2CC[C@H](c3ccc(Cl)cc3)CC2)C(=O)c2ccccc21` [Atovaquone, reference compound] here?
**A.** 99 ± 2%

**Q.** How did the “Percentage inhibition” value ([1]; screening conc. 0.006 mM) turn out when `COc1ccc2c(c1OC)CN1CCc3cc4c(cc3C1C2)OCO4` (centres unmarked) [(d,l)-Tetrahydroberberine, reference compound] was run?
**A.** 83 ± 2%

**Q.** With `CCC(=O)O[C@]1(C(=O)CCl)[C@@H](C)C[C@H]2[C@@H]3CCC4=CC(=O)C=C[C@]4(C)[C@@]3(F)[C@@H](O)C[C@@]21C` [Clobetasol propionate, reference compound] as the molecule, how does the inhibition at 4 µM [1, 3] read?
**A.** 50 ± 16%

**Q.** How did the inhibition at 8 µM ([1]; Plasmodium falciparum) turn out when `CCc1nc(N)nc(N)c1-c1ccc(Cl)cc1` [Pyrimethamine, reference compound] was run?
**A.** 101 ± 2%

**Q.** With `C=C[C@H]1CN2CC[C@H]1C[C@H]2[C@H](O)c1ccnc2ccccc12` [(-)-Cinchonidine, reference compound] as the molecule, how does the “Percentage inhibition” value ([1]; screening conc. 0.007 mM) read?
**A.** 100 ± 1%

**Q.** With `COc1ccc(C[C@H]2NC[C@H](O)[C@H]2OC(C)=O)cc1` [Anisomycin, reference compound] as the molecule, how does the “Percentage inhibition” value ([1]; screening conc. 0.008 mM) read?
**A.** 102 ± 2%

**Q.** With `COc1cccc2c1C(=O)c1c(O)c3c(c(O)c1C2=O)C[C@@](O)(C(C)=O)C[C@@H]3O[C@H]1C[C@H](N)[C@H](O)[C@H](C)O1` [Daunorubicin hydrochloride, reference compound] as the molecule, how does the inhibition at 4 µM [1, 6] read?
**A.** 132 ± 1%

**Q.** `CCCCOc1ccc(CC(=O)NO)cc1` [Bufexamac, reference compound] was tested. Which inhibition at 9 µM ([1]; Plasmodium falciparum, 3D7, read-out: Percentage inhibition of the growth of Plasmodium falciparum, Prestwick Library pilot screen, screening conc. 0.009 mM, duplicate) did it give?
**A.** 69 ± 2%
